Source: US20180002288A1, “USE OF PICOLINAMIDES AS FUNGICIDES” (DOW AGROSCIENCES LLC, priority 2014, published 2018)
Where two headings read alike, the source gives them in different places.

Columns and labels:
Puccinia triticina = assay: Wheat Brown Rust fungicidal activity (PUCCRT); format: in vivo; conditions: for pest or weed control at 121.5 g/ha: Low Volume Cereal Activity at 121.5 g/Ha; for pest or weed control at 100 ppm: wheat, high volume
Zymoseptoria tritici = assay: Leaf Blotch of Wheat fungicidal activity (SEPTTR); format: in vivo; conditions: for pest or weed control at 121.5 g/ha: Low Volume Cereal Activity at 121.5 g/Ha; for pest or weed control at 100 ppm: wheat, high volume
Phakopsora pachyrhizi = assay: Asian Soybean Rust fungicidal activity (PHAKPA); conditions: Phakopsora pachyrhizi, in Glycine max
[1] = 24 h, 1 Day Protectant, read-out: PUCCRT 1DP (Wheat Brown Rust, 1 Day Protectant)
[2] = 72 h, 3 Day Curative, read-out: PUCCRT 3DC (Wheat Brown Rust, 3 Day Curative)
[3] = 24 h, 1 Day Protectant, read-out: SEPTTR 1DP (Wheat Leaf Blotch, 1 Day Protectant)
[4] = 72 h, 3 Day Curative, read-out: SEPTTR 3DC (Wheat Leaf Blotch, 3 Day Curative)
[5] = 24 h, read-out: PHAKPA 1DP % Control rating, soybean, high volume, 25 ppm, 1 Day Protectant
[6] = 72 h, read-out: PHAKPA 3DC % Control rating, soybean, high volume, 25 ppm, 3 Day Curative
[7] = 24 h, 1 Day Protectant, read-out: PUCCRT 1DP % Control rating
[8] = 72 h, 3 Day Curative, read-out: PUCCRT 3DC % Control rating
[9] = 24 h, 1 Day Protectant, read-out: SEPTTR 1DP % Control rating
[10] = 72 h, 3 Day Curative, read-out: SEPTTR 3DC % Control rating

SMILES	pest or weed control at 121.5 g/ha (Puccinia triticina; [1]) [%]	pest or weed control at 121.5 g/ha (Puccinia triticina; [2]) [%]	pest or weed control at 121.5 g/ha (Zymoseptoria tritici; [3]) [%]	pest or weed control at 121.5 g/ha (Zymoseptoria tritici; [4]) [%]	pest or weed control at 25 ppm (Phakopsora pachyrhizi; [5]) [%]	pest or weed control at 25 ppm (Phakopsora pachyrhizi; [6]) [%]	pest or weed control at 100 ppm (Puccinia triticina; [7]) [%]	pest or weed control at 100 ppm (Puccinia triticina; [8]) [%]	pest or weed control at 100 ppm (Zymoseptoria tritici; [9]) [%]	pest or weed control at 100 ppm (Zymoseptoria tritici; [10]) [%]
CCOc1cc(F)ccc1[C@@H](Oc1ccccc1)[C@H](C)OC(=O)[C@H](C)NC(=O)c1nccc(OC)c1OC(C)=O [Example 265]	> 80	> 80	> 80	> 80	< 80	< 0				
COc1cc(F)ccc1[C@@H](OC(=O)C(C)(C)C)[C@H](C)OC(=O)[C@H](C)NC(=O)c1nccc(OC)c1OC(C)=O [Example 296]	> 80	< 0	> 80	> 80	< 80	< 80				
CCCOc1cc(F)ccc1[C@@H](Oc1ccccc1)[C@H](C)OC(=O)[C@H](C)NC(=O)c1nccc(OC)c1OC(C)=O [Example 268]	> 80	> 80	> 80	> 80	< 80	< 80				
COc1ccnc(C(=O)N[C@@H](C)C(=O)O[C@@H](C)[C@@H](OC)c2ccccc2)c1OCOC(C)=O [Example 230]	> 80	> 80	< 0	> 80	< 80	< 80				
COc1cc(F)ccc1[C@@H](OCC(F)F)[C@H](C)OC(=O)[C@H](C)NC(=O)c1nccc(OC)c1OC(C)=O [Example 294]	< 80	< 80	> 80	> 80	< 80	< 80				
COc1cc(F)ccc1[C@@H](OC1CC1)[C@H](C)OC(=O)[C@H](C)NC(=O)c1nccc(OC)c1OC(C)=O [Example 299]	> 80	< 80	> 80	> 80	> 80	< 80				
COc1cc(C)ccc1[C@@H](Oc1ccc(C)cc1)[C@H](C)OC(=O)[C@H](C)NC(=O)c1nccc(OC)c1OC(C)=O [Example 274]	> 80	< 80	> 80	> 80	< 80	< 0				
COc1ccnc(C(=O)N[C@@H](C)C(=O)O[C@@H](C)[C@H](OCC2CC2)c2ccccc2)c1OCOC(C)=O [Example 182]	> 80	> 80	> 80	> 80	> 80	< 80				
COc1ccnc(C(=O)N[C@@H](C)C(=O)O[C@@H](C)[C@H](OCC2CC2)c2cccc(-c3ccccc3)c2)c1OCOC(C)=O [Example 220]	> 80	> 80	< 80	> 80	> 80	< 80				
C=CCOc1cc(F)ccc1[C@@H](Oc1ccccc1)[C@H](C)OC(=O)[C@H](C)NC(=O)c1nccc(OC)c1OC(C)=O [Example 264]	> 80	< 0	> 80	> 80	< 80	< 80				
COc1ccnc(C(=O)N[C@@H](C)C(=O)O[C@@H](C)[C@H](Oc2ccccc2)c2ccc(F)cc2)c1OCOC(C)=O [Example 241]	> 80	> 80	> 80	> 80	> 80	< 0				
COc1cc(F)ccc1[C@@H](Oc1ccc(C)cc1Cl)[C@H](C)OC(=O)[C@H](C)NC(=O)c1nccc(OC)c1OC(C)=O [Example 266]	> 80	< 80	> 80	> 80	< 80	< 0				
COc1ccnc(C(=O)N[C@@H](C)C(=O)O[C@@H](C)[C@H](Oc2ccccc2)c2ccccc2)c1OC(C)=O [Example 184]	> 80	> 80	> 80	> 80	< 80	< 80				
COc1ccnc(C(=O)N[C@@H](C)C(=O)O[C@@H](C)[C@H](Oc2ccccc2)c2ccc(F)cc2Oc2ccccc2)c1OC(C)=O [Example 275]	> 80	> 80	> 80	< 80	< 80	< 0				
COc1cc(F)ccc1[C@@H](OC(=O)C1CC1)[C@H](C)OC(=O)[C@H](C)NC(=O)c1nccc(OC)c1OC(C)=O [Example 297]	< 0	< 0	< 0	< 80	< 80	< 80				
COc1cc(F)ccc1[C@@H](Oc1ccc(C)cc1)[C@H](C)OC(=O)[C@H](C)NC(=O)c1nccc(OC)c1OC(C)=O [Example 271]	> 80	< 0	> 80	> 80	< 80	< 80				
CCCO[C@H](c1ccccc1)[C@H](C)OC(=O)[C@H](C)NC(=O)c1nccc(OC)c1OC(C)=O [Example 228]	> 80	> 80	< 80	> 80	> 80	< 0				
COc1ccnc(C(=O)N[C@@H](C)C(=O)O[C@@H](C)[C@H](Oc2ccccc2)c2ccc(C)cc2F)c1OCOC(C)=O [Example 261]	> 80	> 80	> 80	> 80	> 80	< 0				
COc1ccnc(C(=O)N[C@@H](C)C(=O)O[C@@H](C)[C@H](Oc2ccccc2Cl)c2ccccc2)c1OCOC(C)=O [Example 204]	> 80	> 80	< 80	> 80	> 80	< 80				
COc1ccnc(C(=O)N[C@@H](C)C(=O)O[C@@H](C)[C@H](OCC(C)C)c2ccccc2)c1OC(C)=O [Example 225]	> 80	> 80	< 80	> 80	> 80	< 80				
COc1cc(F)ccc1[C@@H](OCC1CC1)[C@H](C)OC(=O)[C@H](C)NC(=O)c1nccc(OC)c1OC(C)=O [Example 295]	> 80	< 80	> 80	> 80	> 80	< 80				
COc1ccnc(C(=O)N[C@@H](C)C(=O)O[C@@H](C)[C@H](Oc2ccccc2)c2ccc(F)cc2)c1OC(C)=O [Example 242]	> 80	> 80	> 80	> 80	> 80	< 80				
COc1ccnc(C(=O)N[C@@H](C)C(=O)O[C@@H](C)[C@H](OCC2CC2)c2ccccc2)c1OC(C)=O [Example 233]	> 80	> 80	> 80	> 80	> 80	< 80				
COc1ccnc(C(=O)N[C@@H](C)C(=O)O[C@@H](C)[C@H](OCC2CC2)c2ccc(-c3ccccc3)cc2)c1OCOC(C)=O [Example 234]	> 80	< 80	> 80	> 80						
COc1ccnc(C(=O)N[C@@H](C)C(=O)O[C@@H](C)[C@H](Oc2cccc(Cl)c2)c2ccccc2)c1O [Example 118]							> 80	> 80	> 80	> 80
COc1ccnc(C(=O)N[C@@H](C)C(=O)O[C@@H](C)[C@H](Oc2ccccc2)c2ccc(-c3ccccc3)cc2)c1O [Example 144]							> 80	< 80	> 80	< 80
